According to article PMC7218169 (Frontiers in Immunology, 2020):
Where two headings read alike, the source gives them in different places.

Tests used:
[1] = system: histone H3 acetylation in lymphocytes; format: in vivo, human; settings: peripheral lymphocytes
Description: The levels of histone H3 acetylation in lymphocytes (based on FSC/SCC scatter) were determined by flow cytometry from samples taken before (0 h) and at the end of each RMD infusion (RMD1−2−3) (4 h), at 8 and 24 h (+1 day) RMD1, and at 72 h (+3 days) and 7 days after (RMD1−2−3). Cryopreserverd PBMC were thawed 4 h before use, and 500,000 cells were blocked with 600 ul of PBS/10% FBS for 20 min and stained with polyclonal rabbit anti-acetyl histoneH3 (10 μg/ml, MerckMillipore #06–599) or normal rabbit serum (control stain, LifeTechnologies #10510) for 30 min. Cells were washed and subsequently incubated with donkey anti-rabbit IgG(H+L) (6 μg/mL, LifeTechnologies #A21206) for 30 min at room temperature in the dark. Cells were washed, re-suspended in 150 μl PBS and analyzed. ~50,000 events were acquired per sample. The median fluorescence intensity (MFI) for each sample was calculated by substracting the background MFI (isotype control stain) from the anti-acetyl histoneH3 stain.

CD3+ T cells = format: in vivo, human; settings: over the three RMD doses; increases 3 days after each dose, maintained up to 1 week after RMD3
Description: Activation of T cells was determined based upon HLA-DR expression on CD3^+ T cells. Cryopreserved PBMC were thawed, and 1,000,000 cells were stained with CD3 APC-Cy7, CD4 FITC, CD8 BV510 and HLA-DR PECy7 (BioLegend #344818, 300538, 301048, and 307616, respectively). Cells were collected on an LSRII instrument (BD), and data analyzed according to the gating criteria shown in Supplementary Figure 1 using FlowJo 10 software.

HIV-1 [2] = format: in vivo, human
HIV-1 [3] = format: in vivo, human; settings: ultrasensitive single copy assay, during RMD1−2−3
Description: To evaluate HIV-1 RNA below 20 copies/ml, 4–8 ml of plasma samples taken before (0 h) and at the end of each RMD infusion (4 h), at 8 and 24 h (+1 day) after RMD1, and 72 h (+3 days) and 7 days after RMD1−2−3 were ultracentrifugated at 170,000 g at 4°C for 30 min and viral RNA was extracted automatically using the m2000sp Abbot device. HIV-1 RNA copies were quantified using the Abbott Real-Time HIV-1 assay (Abbott Molecular Inc.) and in-house calibration curve sets as described ([38]). The limit of detection (2 HIV-1 RNA copies/mL) was calculated relative to the plasma volume.

[4] = system: early-treated HIV-1-infected individuals; settings: in vivo
CD4+ T cells = settings: median; 3 days after each RMD administration; not fully recovered by day 7 after RMD3
[5] = 5 mg/m^2 BSA i.v. over 4 hours; for RMD-PK AUC1, Med: plasma, AUC0-inf non-compartmental from simulated individual concentrations

C/C=C1\NC(=O)[C@H]2CSSCC/C=C/[C@H](CC(=O)N[C@H](C(C)C)C(=O)N2)OC(=O)[C@H](C(C)C)NC1=O [RMD, Romidepsin]
did not follow a clear pattern: Kinetics of plasma HIV-1 RNA levels (HIV-1 [3])
3 (20) n (%): Palpitations, Total n (%) [4]
3 days: Time of return of acH3 to baseline values after each dose ([1]; flow cytometry)
3 n: Palpitations, Grade 1 n [4]
increased in a progressive manner: T-cell activation (proportion of CD3+/HLA-DR+ cells) (CD3+ T cells)
11 (73) n (%): Nausea, Total n (%) [4]
473.5: RMD-PK AUC1, Med ([5]; MAP - Controllers (n=3))
nearly undetectable levels: RMD concentrations in plasma by 24 h after dosing ([5]; individual profiles simulated with population PK model, LC-MS/MS)
5 events: Thrombocytopenia [4]
higher than 2.5 fold: Median increase of viral expression (CA HIV-1 RNA) at the end of each RMD infusion (HIV-1 [2]; without correction by housekeeping gene, relative to before RMD1, normalization beyond 4 hours)
22 n: Grade 1-2 laboratory abnormalities related to RMD [4]
one: Grade 4 creatinine kinase elevation [4]
80%: Individuals with increases in CA HIV-1 RNA above 2-fold (HIV-1 [2]; at any time point after RMD administrations)
transiently increased: HIV-1 transcription (cell-associated HIV-1 RNA) (HIV-1 [2]; peripheral CD4+ T cells, normalized to TBP, relative to pre-RMD1, more pronounced after RMD2 and RMD3)
increased rapidly: Histone H3 acetylation (acH3) during each RMD infusion ([1]; flow cytometry MFI, remained high during 4 h)
9 (60) n (%): Anorexia, Total n (%) [4]
One: Participants with grade 4 AE, sepsis by Shigella sonnei (SAE) [4]
7 (47) n (%): Abdominal pain, Total n (%) [4]
248 cells/mm^3: Transient decrease of CD4+ T-cell counts (CD4+ T cells)
14 (93) n (%): Fatigue, Total n (%) [4] | Headache, Total n (%) [4]
7 n: Nausea, Grade 2 n [4]
5 (33) n (%): Abdominal distension, Total n (%) [4]
392.9: RMD-PK AUC1, Med ([5]; MAP - Non Controllers (n=10))
6 (40) n (%): Constipation, Total n (%) [4] | Metallic taste, Total n (%) [4]
5 n: Abdominal pain, Grade 1 n [4] | Fatigue, Grade 2 n [4] | Headache, Grade 2 n [4] | Metallic taste, Grade 1 n [4]
4 n: Abdominal distension, Grade 1 n [4] | Constipation, Grade 1 n [4] | Nausea, Grade 1 n [4] | Vomits, Grade 1 n [4]
1 n: Abdominal distension, Grade 2 n [4] | Anorexia, Grade 2 n [4] | Anxiety, Grade 2 n [4] | Dry mouth, Grade 1 n [4] | ECG: ST-elevation, Grade 1 n [4] | Hypotension, Grade 2 n [4] | Libido decrease, Grade 2 n [4] | Metallic taste, Grade 2 n [4] | Myalgia, Grade 1 n [4] | Myalgia, Grade 2 n [4] | Sepsis by Shigella sonnei (SAE), Grade 4 n [4] | Somnolence, Grade 1 n [4]
well-tolerated: Tolerability at the regimen and dose administered [4]
1 (7) n (%): Anxiety, Total n (%) [4] | Dry mouth, Total n (%) [4] | ECG: ST-elevation, Total n (%) [4] | Hypotension, Total n (%) [4] | Libido decrease, Total n (%) [4] | Sepsis by Shigella sonnei (SAE), Total n (%) [4] | Somnolence, Total n (%) [4]
9 n: Fatigue, Grade 1 n [4] | Headache, Grade 1 n [4]
27%: Individuals who vomited the days of RMD administration, percent [4]
204 AE: AE recorded after RMD1−2−3 [4]
8 n: Anorexia, Grade 1 n [4]
4 (27) n (%): Sweating, Total n (%) [4] | Vomits, Total n (%) [4]
2 n: Abdominal pain, Grade 2 n [4] | Constipation, Grade 2 n [4] | Rash, Grade 2 n [4] | Sweating, Grade 1 n [4] | Sweating, Grade 2 n [4]
0 n: Abdominal distension, Grade 3 n [4] | Abdominal distension, Grade 4 n [4] | Abdominal pain, Grade 3 n [4] | Abdominal pain, Grade 4 n [4] | Anorexia, Grade 3 n [4] | Anorexia, Grade 4 n [4] | Anxiety, Grade 1 n [4] | Anxiety, Grade 3 n [4] | Anxiety, Grade 4 n [4] | Constipation, Grade 3 n [4] | Constipation, Grade 4 n [4] | Dry mouth, Grade 2 n [4] | Dry mouth, Grade 3 n [4] | Dry mouth, Grade 4 n [4] | ECG: ST-elevation, Grade 2 n [4] | ECG: ST-elevation, Grade 3 n [4] | ECG: ST-elevation, Grade 4 n [4] | Fatigue, Grade 3 n [4] | Fatigue, Grade 4 n [4] | Headache, Grade 3 n [4] | Headache, Grade 4 n [4] | Hypotension, Grade 1 n [4] | Hypotension, Grade 3 n [4] | Hypotension, Grade 4 n [4] | Libido decrease, Grade 1 n [4] | Libido decrease, Grade 3 n [4] | Libido decrease, Grade 4 n [4] | Metallic taste, Grade 3 n [4] | Metallic taste, Grade 4 n [4] | Myalgia, Grade 3 n [4] | Myalgia, Grade 4 n [4] | Nausea, Grade 3 n [4] | Nausea, Grade 4 n [4] | Palpitations, Grade 2 n [4] | Palpitations, Grade 3 n [4] | Palpitations, Grade 4 n [4] | Rash, Grade 1 n [4] | Rash, Grade 3 n [4] | Rash, Grade 4 n [4] | Sepsis by Shigella sonnei (SAE), Grade 1 n [4] | Sepsis by Shigella sonnei (SAE), Grade 2 n [4] | Sepsis by Shigella sonnei (SAE), Grade 3 n [4] | Somnolence, Grade 2 n [4] | Somnolence, Grade 3 n [4] | Somnolence, Grade 4 n [4] | Sweating, Grade 3 n [4] | Sweating, Grade 4 n [4] | Vomits, Grade 2 n [4] | Vomits, Grade 3 n [4] | Vomits, Grade 4 n [4]
2 (13) n (%): Myalgia, Total n (%) [4] | Rash, Total n (%) [4]
8 events: Hypophosphatemia [4]
